# Source: US20090169487A1, “Essential Oil Diffusion” (priority 2007, published 2009)
# B1: Dornase Alfa: recombinant human DNase which decreases the viscoelasticity of mucous (protein, UniProt P24855 23-282, looked up)
# Deoxyribonuclease-1: LKIAAFNIQTFGETKMSNATLVSYIVQILSRYDIALVQEVRDSHLTAVGKLLDNLNQDAPDTYHYVVSEPLGRNSYKERYLFVYRPDQVSAVDSYYYDDGCEPCGNDTFNREPAIVRFFSRFTEVREFAIVPLHAAPGDAVAEIDALYDVYLDVQEKWGLEDVMLMGDFNAGCSYVRPSQWSSIRLWTSPTFQWLIPDSADTTATPTHCAYDRIVVAGMLLRGAVVPDSALPFNFQAAYGLSDQLAQAISDHYPVEVMLK
# What was measured:
# [1] = Case report: diffused essential oils after NAC and Dornase Alfa in a child with RSV, oxygen requirement and atelectasis; format: in vivo, human; settings: for Overall response of oxygen requirement to treatment: summary of the case
# Description: They experienced a three day prodrome of upper and lower respiratory symptoms and increasing oxygen requirement treated initially at home. They were admitted to a local hospital 7 days prior to the current admission where they continued to received oxygen and was started on a 7 day antibiotic course despite a positive respiratory direct fluorescent antibody test for RSV. They were discharged home on 3 liters oxygen and persistent left upper lobe atelectasis. They presented to our pediatric intensive care unit (PICU) within 12 hours of discharge with respiratory distress and central cyanosis, pulse oximetry oxygen saturation (spO2) 83% off oxygen, 88% on 3 liters per minute (LPM) oxygen.
# Past medical history was significant for titanium rib insertion for restrictive lung disease, metal rods for thoracic scoliosis, hip repair for hip dislocation, and gastric feeding tube placement. Their home medication regimen included a multivitamin, calcium carbonate, and levalbuterol 1 unit dose nebulized every 8 hours. Lasix had been added during the prior hospitalization.
# MW was placed on 6 liters humidified, high-flow nasal canula oxygen (NC O2), achieving a spO2 of 93-98%. […] pulmonary toilet regimen consisted of percussor chest physiotherapy every four hours and postural drainage. On day 4 of admission, day 14 of oxygen requirement, nebulized 20% n-acetyl cysteine (NAC) every eight hours was added. Oxygen requirement began to improve over the next 24 hours, weaning to 2 LPM NC O2, but returned to 3 LPM when […] remained persistently below spO2 93%. Nebulized Dornase Alfa 2.5 mg every twelve hours was added on day 7, day 17 of oxygen requirement. Oxygen requirement remained at 3 LPM with frequent desaturations to the mid 80's despite the intensification of mucolytic therapy.
# On day 8, the previous treatments were discontinued and the essential oil mixture described in TABLE 1, above, including Lavandula latifolia (spike lavender), Thymus mastichina (Spanish marjoram), Abies balsamea (balsam fir), and Mentha×piperita (peppermint) was nebulized at the parents' request. Three drops were applied to a fibrous filter inserted into the base of a fan diffuser (Fan Fuser, Cinegraph, Inc. Seal Beach, Calif.). The mixture was diffused every six hours into the room and passively inhaled by MW. Oxygen requirement was reduced to 1.5 LPM within 12 hours. […] MW was weaned to ¼ LPM NC O2 on the second day of use wand discharged home with an spO2 of 97%, on day 10 of admission, day 20 of oxygen requirement.
# [2] = asthmatics, double-blind randomized control trial; cited from earlier work
Molecule,"Oxygen requirement returned to ([1]; on NAC, when they remained persistently below spO2 93%)","Oxygen requirement (NC O2) ([1]; over the next 24 hours after adding nebulized 20% NAC every eight hours, from 6 liters high-flow)",Overall response of oxygen requirement to treatment [1],Steroid-sparing effect [2],Desaturations (spO2) ([1]; frequent desaturations despite intensified mucolytic therapy (NAC plus Dornase Alfa)),"Oxygen requirement ([1]; nebulized 2.5 mg every twelve hours added on day 7, on top of NAC)"
"CC(=O)N[C@@H](CS)C(=O)O [n-acetyl cysteine (NAC), N-Acetyl Cysteine]",3 LPM,2 LPM,insufficient or worsening response,,,
"CC12CCC(CC1)C(C)(C)O2 [eucalyptol, 1,8 cineole]",,,,steroid-sparing effects,,
B1,,,insufficient or worsening response,,mid 80's,3 LPM
